Measurements reported in PMC3527734, “Peripheral injections of melanin-concentrating hormone receptor 1 antagonist S38151 decrease food intake and body weight in rodent obesity models” (Frontiers in Endocrinology, 2012).
Where a SMILES comes first, the peptide text is derived from it.

Test system: DIO mice
Assay: daily i.p. S38151 in diet-induced obese mice
Type: in vivo, mouse
Experimental: In these studies, 13-week-old female C57BL/6J, ob/ob, and MCH1-KO mice were used. The mice were maintained on a 12-h light/dark cycle (lights on at 07:30 and off at 19:30) at 22 ± 3°C, and supplied with food pellets (6 mm diameter A03, UAR Laboratory chow, Epinay Villemuisson France) and tap water ad libitum. To induce obesity in C57BL/6J (creating diet-induced obese, or DIO, mice), mice were fed a high-fat diet (60 kcal% fat, 20 kcal% protein, 20 kcal% carbohydrate, ref D12492 from Research Diets, New Brunswick, NJ08901, USA) for 8 weeks starting at 4 weeks of age. In these experiments, DIO mice, ob/ob mice, and MCH^−/−1 mice were individually housed in a modular chamber that was placed on an activity platform to concurrently measure the food intake, water intake, and activity of the mice (ADDENFI, Les Cordeliers, Paris, France). For at least 2 weeks before experimentation, mice were habituated to a diet of 6 mm diameter food pellets of the following composition: 67.5% food flour, 26.5% sucrose, 5% gum tragacanth, 1.25% magnesium stearate (A03 UAR, Orge, France), and to i.p. injection. After this habituation period, food intake, drink intake, and body weight were measured for 3 consecutive days. The mice were randomized into three groups based on their food and water intake over the three preceding 24-h periods, and on their body weight. […]
Figure 9 The effects of repeated daily S38151 injection on food and water intake, body weight, and motility in diet-induced obese (DIO) mice. […] Results are expressed as mean ± SEM (n = 8 mice per group).

[1] = S38151 30 mg/kg i.p. daily for 16 days, data not shown
[2] = S38151 10 and 30 mg/kg i.p. daily for 5 days, significant from day 2 only at 30 mg/kg, n = 8

Which results are given for `CSCC[C@@H]1NC(=O)[C@@H](NC(=O)c2ccc(NC(=N)N)cc2)CSSC[C@@H](C(=O)N[C@@H](Cc2c[nH]c3ccccc23)C(=O)O)NC(=O)[C@@H]2CCCN2C(=O)[C@H](CCCNC(=N)N)NC(=O)[C@H](Cc2ccc(O)cc2)NC(=O)[C@H](C(C)C)NC(=O)[C@H](CCCNC(=N)N)NC(=O)[C@H](CC(C)C)NC1=O` [S38151, p-guanidinobenzoyl-(Des-Gly10)-MCH (7–17)] (HELM PEPTIDE1{[N=C(N)Nc1ccc(C(=O)[*:2])cc1].C.M.L.R.V.Y.R.P.C.W}$PEPTIDE1,PEPTIDE1,2:R3-10:R3$$$V2.0; C-terminus assumed)?
body weight gain [1]: significant reduction; glycemia and insulinemia [1]: reduced; triglycerides, free fatty acids, and fat mass [1]: significant reduction; glycemia and insulinemia (S38151 30 mg/kg i.p., day 6, data not shown): significant reductions; body weight gain (S38151 10 and 30 mg/kg i.p. daily for 5 days, significant at day 3 and day 1, respectively): reduction; drink intake [2]: dose-dependent inhibition; food intake [2]: dose-dependent inhibition; motility (S38151 10 and 30 mg/kg i.p., day 3 to day 5): significant reduction
